# Test results as given in patent publication US20090123389A1, “Methods for modulating Th17 cell development in the treatment and prevention of cellulite” (priority 2007, published 2009).
# How the values were obtained:
# [1] = test system: B220+ B cells or CD8+ T cells; experiment: B cell and CD8+ T cell proliferation and function; assay type: cell-based, mouse; details: HF 1.25-40 nM titrated
# Procedure: The non-specific effects of HF on B and CD8+ T cells were evaluated. B220+B cells or CD8+ T cells were isolated from the spleen and peripheral lymph nodes of C57B/6 mice. B cell proliferation and IL-6 production was induced by culturing the cells with LPS (0.5 μg/ml) for 4 days. The effects of HF on B cell function was determined by adding titrating amounts of HF (1.25 nM-40 nM) at the time of LPS stimulation. B cell proliferation was monitored by labeling cells with Carboxyfluorescein diacetate, succinimidyl ester (CFSE; 5 μM) prior to LPS stimulation and determining the rate of CFSE dilution after 4 days by flow cytometric analyses. LPS-induced IL-6 production by B cells was determined by intracellular staining on day 4, following PMA+Ionomycin+Brefeldin A re-stimulation as described above. For CD8+ T cell experiments, purified CD8+ T cells were labeled with CFSE as above and the T cells were activated using anti-CD3 (1 μg/ml) and anti-CD28 (1 μg/ml) antibodies. […] CD8+ T cell proliferation was determined by monitoring CFSE dilution on day 3-post activation; CD25 expression was determined by FACS staining on day 2 of culture; differentiation of CD8+ T cells into cytolytic T cells (CTL) was evaluated on day 4 by determining expression of IFNγ and granzyme B following PMA+Ionomycin+Brefeldin A re-stimulation. […]
# [2] = test system: Xenopus feeding stage tadpoles; experiment: Toxicity in Xenopus feeding stage tadpoles; details: 400 nM HF, treatment for 7 days
# SV-MES mesangial cells = experiment: eIF2α phosphorylation in SV-MES mesangial cells (western blot); assay type: cell-based; details: 20 nM HF, 2 hours
# Procedure: SV-MES mesangial cells were stimulated for 2 hours with DMSO, 20 nM MAZ1310 or 20 nM HF. Whole cell lysates were analyzed for expression of phosphorylated or total eIF2α or GCN2 by western blotting.
# Western blotting: Whole cell lysates were generated from T cells activated for the indicated times. For STAT3 and Smad2/3 western blots cells were harvested, washed in PBS and lysed in 50 mM Tris, pH 7.4, 0.1% SDS, 1% Triton-×100, 140 mM NaCl, 1 mM EDTA, 1 mM EGTA supplemented with protease inhibitors tablets (Roche—Germany), 1 mM NaF and 1 mM Na3VO4. For eIF2α and ATF4 western blots, cells were harvested as above and lysed in 50 mM Tris, pH 7.4, 2% SDS, 20% glycerol and 2 mM EDTA supplemented with protease and phosphatase inhibitors as above. All lysates were cleared via centrifugation and 15-30 μg of protein was resolved by SDS-PAGE. Protein was transferred to nitrocellulose membranes, blocked and blotted using specific antibodies. Antibodies used for western blot analysis were anti-phospho-Smad2, anti-STAT3 (pY705), anti-STAT3, anti-eIF2α^pS51, anti-eIF2α, anti-GCN2^pT898, anti-GCN2 (all from cell signaling technology, Danvers, Mass.). Anti-ATF4/CREB2 and anti-β-actin were purchased from Santa Cruz biotechnology (Santa Cruz, Calif.). […]
# TGFβ signaling = TGFβ signaling in T and B cells (Smad phosphorylation, lymphocyte responses to TGFβ); assay type: cell-based, mouse; details: HF 10 nM (2.5-40 nM for Smad); SB-431542 10 μM
# Procedure: DMSO, 10 nM HF, 10 nM MAZ1310 or 10 μM SB-431542 was added as indicated at the time of activation and intracellular cytokine staining was performed on expanded T cells on day 5 as in FIG. 14B
# FIG. 15B is an illustration depicting the analysis of CD8^+ T cells that were activated in the presence or absence of TGFβ and cultured with DMSO, 10 nM HF, 10 nM MAZ1310 or 10 μM SB-431542. Expanded cells were restimulated on day 5 and intracellular staining was performed as above.
# FIG. 15C is an illustration depicting the analysis of CFSE-labeled B cells that were activated by LPS stimulation in the presence or absence of TGFβ plus DMSO, 10 nM HF, 10 nM MAZ1310 or 10 μM SB-431542. Intracellular IL-6 production in B cells re-stimulated with PMA plus ionomycin, or cell-surface IgA expression was determined 4 days after activation by FACS analyses.
# T cells were then activated in the presence or absence of 3 ng/ml TGFβ. Whole cell extracts were prepared after 1 hour of stimulation and western blot analyses were performed using the indicated antibodies.
# Western blotting: Whole cell lysates were generated from T cells activated for the indicated times. For STAT3 and Smad2/3 western blots cells were harvested, washed in PBS and lysed in 50 mM Tris, pH 7.4, 0.1% SDS, 1% Triton-×100, 140 mM NaCl, 1 mM EDTA, 1 mM EGTA supplemented with protease inhibitors tablets (Roche—Germany), 1 mM NaF and 1 mM Na3VO4. […]
# fibrosis = details: in vitro; cited from earlier work
# [3] = test system: unfolded protein response (Xbp-1 splicing); experiment: Xbp-1 splicing / ER stress response in activated T cells
# dermal ECM deposition = details: cited from earlier work
compound,measurement,setting,value
"O=C(CC1NCCCC1O)Cn1cnc2cc(Br)c(Cl)cc2c1=O (racemic) [HF, 7-bromo-6-chloro-3-[3-(3-hydroxy-2-piperidinyl)-2-oxopropyl]-4(3H)-quinazolinone]",doses at which B and CD8+ T cell proliferation and function were profoundly impaired,[1],greater than 20 nM
same,doses with little or no effect on B and CD8+ T cell function or proliferation,[1],lower than 10 nM
same,toxic effects in tadpoles,[2],does not have detectable toxic effects
same,eIF2α phosphorylation in cultured fibroblasts,SV-MES mesangial cells,increased eIF2α phosphorylation
same,TGFβ-induced Smad phosphorylation and other lymphocyte responses to TGFβ,TGFβ signaling,inhibited neither
same,concentrations at which HF acts as an inhibitor of fibrosis,fibrosis,1 to 200 nM
same,"expression of hallmark ER stress response genes (GRP78/BiP, calreticulin and others)",[3],did not induce
same,Xbp-1 splicing,"[3]; tunicamycin 1 μg/ml or 10 nM HF, 4 hours",without promoting Xbp-1 splicing
same,excess dermal ECM deposition,"dermal ECM deposition; intra-peritoneally, added to food, or applied locally",reduces excess dermal ECM deposition
same,wound healing,"dermal ECM deposition; topical HF, animal models",facilitate wound healing
